Five molecules from PubChem BioAssay AID1745844 (Carcinogenic Potency Database (CPDB), 2022) can be followed below.

The data set concerns rodent lifetime carcinogenesis bioassay, tumor incidence TD50. As to the kind of experiment: carcinogenic potency in animals, long-term in vivo studies, CPDB compilation (AID 1745844).

Several values for one entry are separate records, joined by “and”; a condition that tells them apart may be missing. Equal values may be shown once. Activity calls are given as the source filed them. The rule behind the calls is not given here.

Consider `CC(C)CN(N=O)C(=N)N[N+](=O)[O-]`, for which, under “rat, strain Wistar, males, in drinking water, site: stomach, glandular, lesion: one or several types, types not named, dosed 52 weeks, study length 78 weeks”, the carcinogen call was “negative (inactive)”.
As for `C=COC(C)=O`, the TD50 (in general, the dose at which the toxic effect under study appears in half of the subjects) by setting is: (mouse, strain Charles River CD1, males, inhaled, site: lung, lesion: squamous-cell carcinoma, dosed 104 weeks, study length 104 weeks) 32000 mg/kg/day; (mouse, strain Swiss, females, in drinking water, site: Zymbal's gland, lesion: carcinoma, dosed 78 weeks, study length 151 weeks) 36000 mg/kg/day; (mouse, strain Swiss, females, in drinking water, site: any site (literature study), lesion: benign tumor, dosed 78 weeks, study length 151 weeks) 2030 mg/kg/day; (mouse, strain Swiss, females, in drinking water, site: any site (literature study), lesion: malignant tumor, dosed 78 weeks, study length 151 weeks) 3440 mg/kg/day; (mouse, strain Swiss, females, in drinking water, site: esophagus, lesion: acanthoma, dosed 78 weeks, study length 151 weeks) 36000 mg/kg/day; (mouse, strain Swiss, females, in drinking water, site: esophagus, lesion: squamous-cell carcinoma, dosed 78 weeks, study length 151 weeks) 5640 mg/kg/day. The TD50 (mouse, strain Swiss, females, in drinking water, site: forestomach, lesion: acanthoma, dosed 78 weeks, study length 151 weeks) is 6850 mg/kg/day; the TD50 (mouse, strain Swiss, females, in drinking water, site: forestomach, lesion: squamous-cell carcinoma, dosed 78 weeks, study length 151 weeks) was 11700 mg/kg/day; the TD50 (mouse, strain Swiss, females, in drinking water, site: lung, lesion: adenocarcinoma, dosed 78 weeks, study length 151 weeks) stood at 29900 mg/kg/day; the TD50 (mouse, strain Swiss, females, in drinking water, site: lung, lesion: adenoma, dosed 78 weeks, study length 151 weeks) was determined as 11700 mg/kg/day; the TD50 (mouse, strain Swiss, females, in drinking water, site: lung, lesion: several types, types named in the paper, dosed 78 weeks, study length 151 weeks) amounted to 7640 mg/kg/day; the TD50 (mouse, strain Swiss, females, in drinking water, site: oral cavity, lesion: squamous-cell carcinoma, dosed 78 weeks, study length 151 weeks) is 36000 mg/kg/day. Further, the TD50 was 36000 mg/kg/day (mouse, strain Swiss, females, in drinking water, site: stomach, lesion: adenocarcinoma, dosed 78 weeks, study length 151 weeks); 8760 mg/kg/day (mouse, strain Swiss, females, in drinking water, site: tongue, lesion: squamous-cell carcinoma, dosed 78 weeks, study length 151 weeks); 5570 mg/kg/day (mouse, strain Swiss, females, in drinking water, site: uterus, lesion: adenocarcinoma, dosed 78 weeks, study length 151 weeks); 26100 mg/kg/day (mouse, strain Swiss, females, in drinking water, site: uterus, lesion: leiomyoma, dosed 78 weeks, study length 151 weeks); 26100 mg/kg/day (mouse, strain Swiss, females, in drinking water, site: uterus, lesion: leiomyosarcoma, dosed 78 weeks, study length 151 weeks); 3920 mg/kg/day (mouse, strain Swiss, females, in drinking water, site: uterus, lesion: malignant tumor, dosed 78 weeks, study length 151 weeks). This molecule also registered a TD50 (mouse, strain Swiss, males, in drinking water, site: any site (literature study), lesion: benign tumor, dosed 78 weeks, study length 135 weeks) of 6040 mg/kg/day; a TD50 (mouse, strain Swiss, males, in drinking water, site: any site (literature study), lesion: malignant tumor, dosed 78 weeks, study length 135 weeks) of 552 mg/kg/day; a TD50 (mouse, strain Swiss, males, in drinking water, site: forestomach, lesion: acanthoma, dosed 78 weeks, study length 135 weeks) of 9330 mg/kg/day; a TD50 (mouse, strain Swiss, males, in drinking water, site: lung, lesion: adenocarcinoma, dosed 78 weeks, study length 135 weeks) of 68200 mg/kg/day; a TD50 (mouse, strain Swiss, males, in drinking water, site: lung, lesion: adenoma, dosed 78 weeks, study length 135 weeks) of 5750 mg/kg/day; a TD50 (mouse, strain Swiss, males, in drinking water, site: lung, lesion: several types, types named in the paper, dosed 78 weeks, study length 135 weeks) of 28000 mg/kg/day. Moreover, the TD50 (mouse, strain Swiss, males, in drinking water, site: oral cavity, lesion: squamous-cell carcinoma, dosed 78 weeks, study length 135 weeks) worked out at 9330 mg/kg/day; the TD50 (mouse, strain Swiss, males, in drinking water, site: stomach, lesion: adenocarcinoma, dosed 78 weeks, study length 135 weeks) is 9330 mg/kg/day; the TD50 (mouse, strain Swiss, males, in drinking water, site: tongue, lesion: squamous-cell carcinoma, dosed 78 weeks, study length 135 weeks) was 9330 mg/kg/day; the TD50 (rat, strain Charles River CD (Sprague-Dawley), females, inhaled, site: larynx, lesion: squamous-cell carcinoma, dosed 104 weeks, study length 104 weeks) came to 9050 mg/kg/day; the TD50 (rat, strain Charles River CD (Sprague-Dawley), females, inhaled, site: nose, lesion: squamous-cell carcinoma, dosed 104 weeks, study length 104 weeks) was 2220 mg/kg/day; the TD50 (rat, strain Charles River CD (Sprague-Dawley), males, inhaled, site: nose, lesion: benign tumor, dosed 104 weeks, study length 104 weeks) is 1240 mg/kg/day. Besides, the TD50 by setting is: (rat, strain Charles River CD (Sprague-Dawley), males, inhaled, site: nose, lesion: carcinoma, in situ, dosed 104 weeks, study length 104 weeks) 6310 mg/kg/day; (rat, strain Charles River CD (Sprague-Dawley), males, inhaled, site: nose, lesion: malignant tumor, dosed 104 weeks, study length 104 weeks) 2080 mg/kg/day; (rat, strain Charles River CD (Sprague-Dawley), males, inhaled, site: nose, lesion: papilloma, inverted, dosed 104 weeks, study length 104 weeks) 1550 mg/kg/day; (rat, strain Charles River CD (Sprague-Dawley), males, inhaled, site: nose, lesion: several types, types named in the paper, dosed 104 weeks, study length 104 weeks) 758 mg/kg/day; (rat, strain Charles River CD (Sprague-Dawley), males, inhaled, site: nose, lesion: squamous-cell carcinoma, dosed 104 weeks, study length 104 weeks) 3140 mg/kg/day; (rat, strain Fischer 344, females, in drinking water, site: liver, lesion: neoplastic nodule, dosed 100 weeks, study length 130 weeks) 488 mg/kg/day. Besides, the TD50 by setting is: (rat, strain Fischer 344, females, in drinking water, site: thyroid gland, lesion: c-cell adenoma, dosed 100 weeks, study length 130 weeks) 420 mg/kg/day; (rat, strain Fischer 344, females, in drinking water, site: thyroid gland, lesion: c-cell carcinoma, dosed 100 weeks, study length 130 weeks) 25500 mg/kg/day; (rat, strain Fischer 344, females, in drinking water, site: uterus, lesion: adenocarcinoma, dosed 100 weeks, study length 130 weeks) 494 mg/kg/day; (rat, strain Fischer 344, males, in drinking water, site: any site (literature study), lesion: several types, types named in the paper, dosed 100 weeks, study length 130 weeks) 57.7 mg/kg/day; (rat, strain Fischer 344, males, in drinking water, site: liver, lesion: neoplastic nodule, dosed 100 weeks, study length 130 weeks) 132 mg/kg/day. The carcinogen call (rat, strain Fischer 344, males, in drinking water, site: thyroid gland, lesion: c-cell carcinoma, dosed 100 weeks, study length 130 weeks) was “positive”.
Turning to `CN(C)N=Nc1nc[nH]c1C(N)=O`, the TD50 reads like this: (mouse, strain Swiss, females, i.p., site: all sites, lesion: lymphosarcoma, dosed 26 weeks, study length 61 weeks) 8 mg/kg/day; (mouse, strain Swiss, females, i.p., site: any site (literature study), lesion: benign tumor, dosed 26 weeks, study length 61 weeks) 7.03 mg/kg/day; (mouse, strain Swiss, females, i.p., site: any site (literature study), lesion: malignant tumor, dosed 26 weeks, study length 61 weeks) 0.807 mg/kg/day; (mouse, strain Swiss, females, i.p., site: lung, lesion: several types, types named in the paper, dosed 26 weeks, study length 61 weeks) 0.595 mg/kg/day; (mouse, strain Swiss, females, i.p., site: spleen, lesion: hemangioendothelioma, dosed 26 weeks, study length 61 weeks) 14.5 mg/kg/day; (mouse, strain Swiss, females, i.p., site: uterus, lesion: adenocarcinoma, dosed 26 weeks, study length 61 weeks) 3.2 mg/kg/day. Further, the TD50 (mouse, strain Swiss, males, i.p., site: all sites, lesion: lymphatic leukemia, dosed 26 weeks, study length 78 weeks) is 13 mg/kg/day; the TD50 (mouse, strain Swiss, males, i.p., site: all sites, lesion: lymphosarcoma, dosed 26 weeks, study length 78 weeks) was 16.1 mg/kg/day; the TD50 (mouse, strain Swiss, males, i.p., site: any site (literature study), lesion: benign tumor, dosed 26 weeks, study length 78 weeks) came out at 10.6 mg/kg/day; the TD50 (mouse, strain Swiss, males, i.p., site: any site (literature study), lesion: malignant tumor, dosed 26 weeks, study length 78 weeks) was 1.54 mg/kg/day; the TD50 (mouse, strain Swiss, males, i.p., site: any site (literature study), lesion: several types, types named in the paper, dosed 26 weeks, study length 78 weeks) stood at 0.813 mg/kg/day; the TD50 (mouse, strain Swiss, males, i.p., site: liver, lesion: several types, types named in the paper, dosed 26 weeks, study length 78 weeks) is 98.8 mg/kg/day. Moreover, the TD50 reads like this: (mouse, strain Swiss, males, i.p., site: lung, lesion: several types, types named in the paper, dosed 26 weeks, study length 78 weeks) 2.57 mg/kg/day; (mouse, strain Swiss, males, i.p., site: spleen, lesion: several types, types named in the paper, dosed 26 weeks, study length 78 weeks) 5.17 mg/kg/day; (rat, strain Sprague-Dawley, females, in feed, site: mammary gland, lesion: adenofibroma, dosed 46 weeks, study length 60 weeks) 0.71 mg/kg/day; (rat, strain Sprague-Dawley, females, in feed, site: thymus gland, lesion: lymphosarcoma, dosed 46 weeks, study length 60 weeks) 4.21 mg/kg/day; (rat, strain Sprague-Dawley, females, in feed, site: uterus, lesion: leiomyosarcoma, dosed 46 weeks, study length 60 weeks) 6.55 mg/kg/day.
Regarding `Nc1ccccc1N`, the TD50 reads like this: (mouse, strain CD-1 HaM/ICR, females, in feed, site: any site (literature study), lesion: several types, types named in the paper, dosed 77 weeks, study length 90 weeks) 676 mg/kg/day; (mouse, strain CD-1 HaM/ICR, females, in feed, site: liver, lesion: hepatoma, dosed 77 weeks, study length 90 weeks) 611 mg/kg/day; (mouse, strain CD-1 HaM/ICR, females, in feed, site: liver, lesion: several types, types named in the paper, dosed 77 weeks, study length 90 weeks) 507 mg/kg/day; (mouse, strain CD-1 HaM/ICR, females, in feed, site: lung, lesion: several types, types named in the paper, dosed 77 weeks, study length 90 weeks) 2260 mg/kg/day (inactive); (mouse, strain CD-1 HaM/ICR, males, in feed, site: any site (literature study), lesion: several types, types named in the paper, dosed 77 weeks, study length 86 weeks) 1970 mg/kg/day; (mouse, strain CD-1 HaM/ICR, males, in feed, site: liver, lesion: hepatoma, dosed 77 weeks, study length 86 weeks) 921 mg/kg/day and 1110 mg/kg/day. In addition, the TD50 (mouse, strain CD-1 HaM/ICR, males, in feed, site: liver, lesion: several types, types named in the paper, dosed 77 weeks, study length 86 weeks) was 921 mg/kg/day; the TD50 (mouse, strain CD-1 HaM/ICR, males, in feed, site: lung, lesion: several types, types named in the paper, dosed 77 weeks, study length 86 weeks) is 3210 mg/kg/day (inactive); the TD50 (rat, strain Charles River CD (Sprague-Dawley), males, in feed, site: liver, lesion: hepatoma, dosed 77 weeks, study length 107 weeks) is 248 mg/kg/day and 315 mg/kg/day; the TD50 (rat, strain Charles River CD (Sprague-Dawley), males, in feed, site: liver, lesion: several types, types named in the paper, dosed 77 weeks, study length 107 weeks) is 248 mg/kg/day.
On to `O=NN1CCCCCCCCCCCC1`, for which the TD50 is, setting by setting: (rat, strain NZR/Gd, females, by gavage, site: liver, lesion: hepatocellular tumor, dosed 52 weeks, study length 171 weeks) 10.9 mg/kg/day; (rat, strain NZR/Gd, females, by gavage, site: lung, lesion: several types, types named in the paper, dosed 52 weeks, study length 171 weeks) 7.96 mg/kg/day; (rat, strain NZR/Gd, males, by gavage, site: heart, lesion: one or several types, types not named, dosed 52 weeks, study length 150 weeks) 2.15 mg/kg/day; (rat, strain NZR/Gd, males, by gavage, site: liver, lesion: hepatocellular tumor, dosed 52 weeks, study length 150 weeks) 16.8 mg/kg/day; (rat, strain NZR/Gd, males, by gavage, site: lung, lesion: several types, types named in the paper, dosed 52 weeks, study length 150 weeks) 14.6 mg/kg/day.
